{"source": "patent US10335382B2", "about": "“Use of hydrogen sulfide synthesis inhibitors for cancer therapy” (THE BOARD OF REGENTS OF THE UNIVERSITY OF TEXAS SYSTEM, priority 2013, dated 2019)", "test_system": "HCT116 tumor xenografts", "assay": "HCT116 tumor xenograft in nude mice", "type": "in vivo, Nu/nu Balb/C female mice", "conditions": "AOAA 9 mg/kg/day s.c.", "protocol": "Nu/nu Balb/C female mice (8-10 weeks) were injected subcutaneously in the right and left dorsum (10^6 cells/side with HCT-116 cells). One week later, the mice were randomized and subcutaneous injections of phosphate buffered saline (PBS) or AOAA (9 mg/kg/day) were performed 6 days/week. Tumor diameters were measured transcutaneously using calipers and tumor volumes were calculated using the formula V=(π/6)hd^2. T-test comparisons of the tumor volumes and final weights at harvest were performed. Xenotrials with patient-derived xenografts (PTX) were performed on nu/nu mice implanted subcutaneously with a piece of Passage 2 tumor measuring 2-5 mm^3 each. When a small palpable tumor was evident at 7-10 days, the mice with tumor take were randomized and subjected to subcutaneous injection of vehicle or AOAA (9 mg/kg/day) 6 days/week. Specimens were fixed with 10% formalin and embedded in paraffin. 5 μm sections were stained with hematoxylin and eosin. Each in vivo experiment was repeated at least twice.\nTissue preparation, immunostaining of CD31, and evaluation of microvessel density with the Chakley reticle was performed as described (Chao et al. (1996) Cancer Res. 56:4811-19).\nNu/nu Balb/c female mice (8-10 weeks) were injected subcutaneously in the right and left dorsum (10^6 cells/side with HCT116 cells). One week later, the mice were randomized and subcutaneous injection of phosphate buffered saline (PBS control) or YD2-51 (0.1, 0.5 or 1 mg/kg) was performed 6 days/week. Tumor volumes and final weights at harvest (post-tumor injection Day 28) were performed and tumor weight/animal weight ratios calculated.", "data": [{"smiles": "NOCC(=O)O", "note": "[AOAA, aminooxyacetic acid]", "values": [{"measurement": "rate of HCT116 xenograft growth", "setting": "6 days/week", "value": "significantly slowed"}, {"measurement": "tumor size and weight at harvest", "setting": "6 days/week", "value": "reduced size and weight"}, {"measurement": "plasma concentration of H2S", "setting": "tumor-bearing mice", "value": "reduction"}]}]}
